# According to patent US6936735B2, “Photostable cationic organic sunscreen compounds and compositions obtained therefrom” (EMD Chemicals, Inc., priority 2002, dated 2005):
# Columns and labels:
# Assay type in all cases: physicochemical
# [1] = UV absorption maximum; settings: EtOH:water—70%:30%
# Description: The mass was degassed for one hour at 90-95 deg. C. under vacuum. The yield obtained is about 85%. […] A 50% solution in water was prepared for ease of handling.
# [2] = Solubility; settings: for solubility in water: water / aqueous solution
# [3] = Comparative photostability of thin film under UV-A irradiation (Q-UV Accelerated Weathering Tester); settings: UV-A (2 MED/h), thin film with 0.1% PVP-VA on glass plate, Example 3 1%, Incroquat 283 1%, HP610 0.1%
# Description: (§1) The photostability of compounds of the present invention as well as existing commercial cationic sunscreens is tested according to the procedure described below: • Photostability: Comparative Photostability of Example 3, Incroquat® 283 and Escalol® HP610
# (§2) Three products [Example 3 (1%), Incroquat 283 (1%) and HP610 (0.1%)] were tested for their photostability by dissolving separately in water or ethanol-water solution containing 0.1% Poly(vinylpyrrolidone-vinyl acetate) copolymer (PVP-VA S630 from ISP). Air drying on a glass plate for one hour gave a thin film, which were irradiated under UV A (2 MED/h) and UV B (1 MED/h) light separately over an 8 h period in a Q-UV Accelerated Weathering Tester. Photodegradation was calculated from the decrease in the maximum absorption of the respective products. The results are illustrated in the Tables 1 and 2.
# [4] = Comparative photostability of thin film under UV-B irradiation (Q-UV Accelerated Weathering Tester); settings: UV-B (1 MED/h), thin film with 0.1% PVP-VA on glass plate, Example 3 1%, Incroquat 283 1%, HP610 0.1%
# Description: as §1, §2
Compound,λmax [1] [nm],solubility in water [2],% Product Retained After 2 hr [3] [%],% Product Retained After 4 hr [3] [%],% Product Retained After 6 hr [3] [%],% Product Retained After Initial [3] [%],% Product Retained After 1 hr [4] [%],% Product Retained After 2 hr [4] [%],% Product Retained After Initial [4] [%],maximal concentration reached in solution ([2]; aqueous-ethanolic solution (30:70%)) [%]
"Bis-N-[3(N,N-dimethylamino)propyl]-3,4,5-trimethoxy benzylidene malonamide bis ethylsulfate [Example 3]",301,soluble in water,98,97,94,100,96,93,100,–
CCCCCCCCCCCC[N+](C)(C)CCCNC(=O)c1ccc(N(C)C)cc1.Cc1ccc(S(=O)(=O)[O-])cc1 [Escalol HP ®-610],–,very poor solubility,50,40,30,100,33,28,100,0.25
